Measurements from patent publication US9623028B2, “Methods of treating a cancer using substituted pyrrolopyrimidine compounds, compositions thereof” (Signal Pharmaceuticals, LLC, priority 2014, dated 2017).
Read-outs that look alike come from different tables or passages of the source.

Experiments:
breast cancer cell lines = assay: cells; details: for IC50: read-out: Growth Inhibition IC50; for GI50: read-out: Growth inhibition GI50
[1] = test system: non small cell lung cancer (NSCLC) cell lines; assay: cells
CLK1 = CLK1 (Homo sapiens (Human), UniProt P49759); assay: biochemical; details: read-out: CLK1 (% Inh.), % inhibition at 3 μM
Sequence of CLK1 (P49759 whole entry): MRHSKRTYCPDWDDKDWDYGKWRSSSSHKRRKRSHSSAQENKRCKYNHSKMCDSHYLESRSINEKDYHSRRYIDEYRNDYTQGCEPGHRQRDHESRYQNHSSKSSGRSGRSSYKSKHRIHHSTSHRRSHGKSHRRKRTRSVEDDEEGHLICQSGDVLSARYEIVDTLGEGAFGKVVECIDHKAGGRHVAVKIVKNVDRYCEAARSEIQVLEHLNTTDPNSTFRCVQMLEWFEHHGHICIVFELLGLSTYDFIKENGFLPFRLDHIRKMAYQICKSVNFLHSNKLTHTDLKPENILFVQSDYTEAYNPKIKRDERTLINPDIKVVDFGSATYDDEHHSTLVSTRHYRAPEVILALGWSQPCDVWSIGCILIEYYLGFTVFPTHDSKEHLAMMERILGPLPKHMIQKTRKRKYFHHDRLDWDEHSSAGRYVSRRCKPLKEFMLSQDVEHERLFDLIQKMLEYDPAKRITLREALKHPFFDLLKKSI

CLK2 = CLK2 (Homo sapiens (Human), UniProt P49760); assay: biochemical; details: read-out: CLK2 (% Inh.), % inhibition at 3 μM
Sequence of CLK2 (P49760 whole entry): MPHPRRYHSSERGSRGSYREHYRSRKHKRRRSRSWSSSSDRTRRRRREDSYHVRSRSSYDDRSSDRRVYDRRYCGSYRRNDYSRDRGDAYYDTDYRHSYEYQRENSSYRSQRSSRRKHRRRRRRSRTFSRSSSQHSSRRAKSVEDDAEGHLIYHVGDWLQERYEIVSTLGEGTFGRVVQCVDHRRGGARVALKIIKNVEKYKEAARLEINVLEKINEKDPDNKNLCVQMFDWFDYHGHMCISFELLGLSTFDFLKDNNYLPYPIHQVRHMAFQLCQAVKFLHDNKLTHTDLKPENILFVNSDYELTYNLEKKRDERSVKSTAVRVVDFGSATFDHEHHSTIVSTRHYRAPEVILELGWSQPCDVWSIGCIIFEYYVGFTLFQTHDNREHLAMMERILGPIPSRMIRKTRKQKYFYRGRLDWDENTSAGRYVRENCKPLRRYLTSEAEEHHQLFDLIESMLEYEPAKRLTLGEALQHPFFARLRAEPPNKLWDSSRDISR

[2] = Homo sapiens, MDA-MB-175-VII, 96 h

IC50 (breast cancer cell lines; EFM-192A, 96 h): 10000 nM
GI50 (breast cancer cell lines; EFM-192A, 96 h): 10000 nM
IC50 (breast cancer cell lines; HCC202, 96 h): 16000 nM
GI50 (breast cancer cell lines; HCC202, 96 h): 15000 nM
GI50 (breast cancer cell lines; HCC1500, 96 h): 53 nM
IC50 (breast cancer cell lines; Homo sapiens, AU565, 96 h): 1100 nM
GI50 (breast cancer cell lines; Homo sapiens, AU565, 96 h): 426 nM
IC50 (breast cancer cell lines; Homo sapiens, BT-20, 96 h): 608 nM
GI50 (breast cancer cell lines; Homo sapiens, BT-20, 96 h): 289 nM
IC50 (breast cancer cell lines; Homo sapiens, BT-474, 96 h): 16300 nM
GI50 (breast cancer cell lines; Homo sapiens, BT-474, 96 h): 6020 nM
IC50 (breast cancer cell lines; Homo sapiens, BT-483, 96 h): 10000 nM
GI50 (breast cancer cell lines; Homo sapiens, BT-483, 96 h): 704 nM
IC50 (breast cancer cell lines; Homo sapiens, BT-549, 96 h): 180 nM
GI50 (breast cancer cell lines; Homo sapiens, BT-549, 96 h): 85 nM
IC50 (breast cancer cell lines; Homo sapiens, CAL-51, 96 h): 9 nM
GI50 (breast cancer cell lines; Homo sapiens, CAL-51, 96 h): 8 nM
IC50 (breast cancer cell lines; Homo sapiens, CAL-85-1, 96 h): 76 nM
GI50 (breast cancer cell lines; Homo sapiens, CAL-85-1, 96 h): 25 nM
IC50 (breast cancer cell lines; Homo sapiens, CAL-120, 96 h): 10000 nM
GI50 (breast cancer cell lines; Homo sapiens, CAL-120, 96 h): 10000 nM
IC50 (breast cancer cell lines; Homo sapiens, CAMA-1, 96 h): 10700 nM
GI50 (breast cancer cell lines; Homo sapiens, CAMA-1, 96 h): 4900 nM
IC50 (breast cancer cell lines; Homo sapiens, DU-4475, 96 h): 560 nM
GI50 (breast cancer cell lines; Homo sapiens, DU-4475, 96 h): 82 nM
IC50 (breast cancer cell lines; Homo sapiens, EFM-19, 96 h): 730 nM
GI50 (breast cancer cell lines; Homo sapiens, EFM-19, 96 h): 67 nM
IC50 (breast cancer cell lines; Homo sapiens, HCC38, 96 h): 47 nM
GI50 (breast cancer cell lines; Homo sapiens, HCC38, 96 h): 17 nM
IC50 (breast cancer cell lines; Homo sapiens, HCC1143, 96 h): 17500 nM
GI50 (breast cancer cell lines; Homo sapiens, HCC1143, 96 h): 286 nM
IC50 (breast cancer cell lines; Homo sapiens, HCC1187, 96 h): 881 nM
GI50 (breast cancer cell lines; Homo sapiens, HCC1187, 96 h): 470 nM
IC50 (breast cancer cell lines; Homo sapiens, HCC1428, 96 h): 4970 nM
GI50 (breast cancer cell lines; Homo sapiens, HCC1428, 96 h): 1090 nM
IC50 (breast cancer cell lines; Homo sapiens, HCC1569, 96 h): 5430 nM
GI50 (breast cancer cell lines; Homo sapiens, HCC1569, 96 h): 73 nM
IC50 (breast cancer cell lines; Homo sapiens, HCC1937, 96 h): 10000 nM
GI50 (breast cancer cell lines; Homo sapiens, HCC1937, 96 h): 7460 nM
IC50 (breast cancer cell lines; Homo sapiens, HCC1954, 96 h): 482 nM
GI50 (breast cancer cell lines; Homo sapiens, HCC1954, 96 h): 131 nM
IC50 (breast cancer cell lines; Homo sapiens, HCC2157, 96 h): 120 nM
GI50 (breast cancer cell lines; Homo sapiens, HCC2157, 96 h): 24 nM
IC50 (breast cancer cell lines; Homo sapiens, Hs-578T, 96 h): 183 nM
GI50 (breast cancer cell lines; Homo sapiens, Hs-578T, 96 h): 104 nM
IC50 (breast cancer cell lines; Homo sapiens, MCF7, 96 h): 170 nM
GI50 (breast cancer cell lines; Homo sapiens, MCF7, 96 h): 124 nM
IC50 (breast cancer cell lines; Homo sapiens, MCF-12A, 96 h): 3150 nM
GI50 (breast cancer cell lines; Homo sapiens, MCF-12A, 96 h): 486 nM
GI50 (breast cancer cell lines; Homo sapiens, MDA-MB-134-VI, 96 h): 874 nM
IC50 (breast cancer cell lines; Homo sapiens, MDA-MB-157, 96 h): 695 nM
GI50 (breast cancer cell lines; Homo sapiens, MDA-MB-157, 96 h): 225 nM
IC50 (breast cancer cell lines; [2]): 8500 nM
GI50 (breast cancer cell lines; [2]): 400 nM
IC50 (breast cancer cell lines; Homo sapiens, MDA-MB-231, 96 h): 38 nM
GI50 (breast cancer cell lines; Homo sapiens, MDA-MB-231, 96 h): 22 nM
IC50 (breast cancer cell lines; Homo sapiens, MDA-MB-361, 96 h): 18800 nM
GI50 (breast cancer cell lines; Homo sapiens, MDA-MB-361, 96 h): 5480 nM
IC50 (breast cancer cell lines; Homo sapiens, MDA-MB-415, 96 h): 13500 nM
GI50 (breast cancer cell lines; Homo sapiens, MDA-MB-415, 96 h): 11700 nM
IC50 (breast cancer cell lines; Homo sapiens, MDA-MB-436, 96 h): 2100 nM
GI50 (breast cancer cell lines; Homo sapiens, MDA-MB-436, 96 h): 1380 nM
IC50 (breast cancer cell lines; Homo sapiens, MDA-MB-453, 96 h): 2790 nM
GI50 (breast cancer cell lines; Homo sapiens, MDA-MB-453, 96 h): 799 nM
IC50 (breast cancer cell lines; Homo sapiens, MDA-MB-468, 96 h): 32 nM
GI50 (breast cancer cell lines; Homo sapiens, MDA-MB-468, 96 h): 27 nM
IC50 (breast cancer cell lines; Homo sapiens, SK-BR-3, 96 h): 3690 nM
GI50 (breast cancer cell lines; Homo sapiens, SK-BR-3, 96 h): 1180 nM
IC50 (breast cancer cell lines; Homo sapiens, T47D, 96 h): 418 nM
GI50 (breast cancer cell lines; Homo sapiens, T47D, 96 h): 162 nM
IC50 (breast cancer cell lines; Homo sapiens, UACC-812, 96 h): 1790 nM
GI50 (breast cancer cell lines; Homo sapiens, UACC-812, 96 h): 842 nM
IC50 (breast cancer cell lines; Homo sapiens, ZR-75-1, 96 h): 6390 nM
GI50 (breast cancer cell lines; Homo sapiens, ZR-75-1, 96 h): 1140 nM
IC50 (breast cancer cell lines; Homo sapiens, ZR-75-30, 96 h): 30000 nM
GI50 (breast cancer cell lines; Homo sapiens, ZR-75-30, 96 h): 11600 nM
IC50 (breast cancer cell lines; KPL-1, 96 h): 693 nM
GI50 (breast cancer cell lines; KPL-1, 96 h): 245 nM
IC50 ([1]; Homo sapiens, A549, 72 h, read-out: Average IC50 (μM)): 0.05 µM
IC50 ([1]; Homo sapiens, HOP-62, 72 h, read-out: Average IC50 (μM)): 0.05 µM
IC50 ([1]; Homo sapiens, HOP-92, 72 h, read-out: Average IC50 (μM)): 1.27 µM
IC50 ([1]; Homo sapiens, NCI-H441, 72 h, read-out: Average IC50 (μM)): 2.1 µM
IC50 ([1]; Homo sapiens, NCI-H460, 72 h, read-out: Average IC50 (μM)): 0.04 µM
IC50 ([1]; Homo sapiens, NCI-H1299, 72 h, read-out: Average IC50 (μM)): 0.36 µM
IC50 ([1]; Homo sapiens, NCI-H1437, 72 h, read-out: Average IC50 (μM)): 0.39 µM
IC50 ([1]; Homo sapiens, NCI-H1563, 72 h, read-out: Average IC50 (μM)): 1.77 µM
IC50 ([1]; Homo sapiens, NCI-H1650, 72 h, read-out: Average IC50 (μM)): 0.62 µM
IC50 ([1]; Homo sapiens, NCI-H1734, 72 h, read-out: Average IC50 (μM)): 0.91 µM
IC50 ([1]; Homo sapiens, NCI-H1838, 72 h, read-out: Average IC50 (μM)): 16.1 µM
IC50 ([1]; Homo sapiens, NCI-H2228, 72 h, read-out: Average IC50 (μM)): 1.58 µM
IC50 ([1]; Homo sapiens, NCI-H2291, 72 h, read-out: Average IC50 (μM)): 16.3 µM
IC50 ([1]; Homo sapiens, SK-LU-1, 72 h, read-out: Average IC50 (μM)): 0.83 µM
IC50 ([1]; Homo sapiens, SW1573, 72 h, read-out: Average IC50 (μM)): 0.96 µM
IC50 ([1]; read-out: growth inhibition IC50 values): ≤ 2 µM
inhibition at 3 µM (CLK1): 91%
inhibition at 3 µM (CLK2): 104%
SMILES: CNC(=O)c1ccc(Nc2nc(OC3CCCC3)c3c(-c4ccc(O)cc4)c[nH]c3n2)c(OC)c1 [Compound 3, 4-((4-(cyclopentyloxy)-5-(4-hydroxyphenyl)-7H-pyrrolo[2,3-d]pyrimidin-2-yl)amino)-3-methoxy-N-methylbenzamide]
IC50 (breast cancer cell lines; Homo sapiens, HCC70, 96 h): 1950 nM
GI50 (breast cancer cell lines; Homo sapiens, HCC70, 96 h): 442 nM
IC50 (breast cancer cell lines; Homo sapiens, MCF-10A, 96 h): 17400 nM
GI50 (breast cancer cell lines; Homo sapiens, MCF-10A, 96 h): 426 nM
